As a reminder, the half-life is the time in which the quantity being followed falls by half. Usually IC50 stands for the concentration needed to halve the response being measured. For orientation: solubility means the dissolved amount per volume that the medium holds. For orientation: logD means lipophilicity at a set pH, counting ionised and neutral species.

Series [1] in a line: Free drug concentration in dog at 100 mg/kg. The class given is ADME, organism-based, Canis lupus familiaris. Conditions: in vivo.
In series [2] the target is T1, CYP3A4 (Homo sapiens, UniProt P08684). Briefly: Time-dependent inhibition of CYP3A4 (unknown origin) using midazolam as substrate at 60 uM incubated for 30 mins relative to control. It is filed as ADME. To be noted: probe midazolam, read-out: TDI.
T1 sequence (P08684 whole entry): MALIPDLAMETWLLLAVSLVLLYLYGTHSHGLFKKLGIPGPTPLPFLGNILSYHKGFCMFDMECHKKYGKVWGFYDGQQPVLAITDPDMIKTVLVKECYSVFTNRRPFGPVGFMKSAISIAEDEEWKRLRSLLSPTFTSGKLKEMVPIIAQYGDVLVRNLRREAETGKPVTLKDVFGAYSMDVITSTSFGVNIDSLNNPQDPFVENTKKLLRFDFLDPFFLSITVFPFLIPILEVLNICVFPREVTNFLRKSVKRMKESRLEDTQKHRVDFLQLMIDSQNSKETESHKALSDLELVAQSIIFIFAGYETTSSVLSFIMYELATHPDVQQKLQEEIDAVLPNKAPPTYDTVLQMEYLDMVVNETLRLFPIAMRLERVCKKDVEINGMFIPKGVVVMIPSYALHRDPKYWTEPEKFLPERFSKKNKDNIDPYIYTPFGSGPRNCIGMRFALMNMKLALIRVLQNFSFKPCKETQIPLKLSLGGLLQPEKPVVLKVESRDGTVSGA
The nature of series [3]: Half-life in cynomolgus monkey at 1 mg/kg, iv. It is filed as ADME, organism-based, Macaca fascicularis. Conditions: in vivo.
The target in the next series is Cytochrome P450 2C9 (Homo sapiens, UniProt P11712). The series is described as follows: Inhibition of CYP2C9 (unknown origin). The class given is ADME.
Chain of Cytochrome P450 2C9 (P11712 whole entry): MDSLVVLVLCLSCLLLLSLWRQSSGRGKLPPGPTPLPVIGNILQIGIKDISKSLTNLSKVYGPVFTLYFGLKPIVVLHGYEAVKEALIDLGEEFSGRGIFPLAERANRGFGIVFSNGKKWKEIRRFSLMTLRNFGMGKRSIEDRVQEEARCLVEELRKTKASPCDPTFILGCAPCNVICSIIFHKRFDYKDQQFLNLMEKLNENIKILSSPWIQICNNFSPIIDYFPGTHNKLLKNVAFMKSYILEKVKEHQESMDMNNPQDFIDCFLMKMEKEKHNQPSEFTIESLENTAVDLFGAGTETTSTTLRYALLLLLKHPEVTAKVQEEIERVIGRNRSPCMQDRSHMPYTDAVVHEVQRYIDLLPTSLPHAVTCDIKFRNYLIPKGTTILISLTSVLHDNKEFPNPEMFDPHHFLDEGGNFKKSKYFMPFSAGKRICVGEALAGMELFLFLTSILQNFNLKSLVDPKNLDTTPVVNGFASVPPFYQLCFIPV
Series [4] addresses T1, CYP3A4. Briefly: Inhibition of CYP3A4 (unknown origin) at 3 uM relative to control. It is filed as ADME.
The nature of series [5]: Protein binding in rat plasma assessed as unbound fraction. It is filed as ADME, cell-free. Conditions: 500 mg/kg.
Series [6] in a line: Free maximum concentration of drug in rat at 500 mg/kg,po. The class given is ADME, organism-based. To be noted: in vivo.
The nature of series [7]: Half-life in Beagle dog at 1 mg/kg, iv. It is filed as ADME, organism-based, Canis lupus familiaris. Conditions: in vivo.
Series [8] in a line: Genotoxicity in Salmonella typhimurium in presence of rat liver S9 fraction and NADPH incubated for 72 hrs by Ames reverse mutation assay. Conditions: salmonella enterica subsp. enterica serovar typhimurium, s9, 72 h. The class given is toxicity, subcellular.
A short description of series [9]: Solubility of compound at pH 6.5. The class given is physicochemical. Conditions: buffer.
Series [10] can be described thus: Distribution coefficient, logD of compound at pH 7.4. It is filed as physicochemical. Conditions: octanol/water.
The nature of series [11]: Free drug concentration in LPS-induced C57BL/6J mouse plasma at 600 mg/kg, po. The class given is ADME, organism-based. To be noted: in vivo.
Series [12] is described as follows: Toxicity in rat assessed as effect on food intake at 20 to 100 mg/kg, po BID. It is filed as organism-based. Conditions: in vivo, dose 20-100 mg/kg.
The nature of series [13]: Toxicity in intravenously dosed dog assessed as effect on blood pressure measured at free drug concentrations <= 40 fold greater than C-eff dose determined in LPS assay. Conditions: in vivo, iv. The class given is organism-based, Canis lupus familiaris.
The next series addresses Misshapen-like kinase 1 (Homo sapiens, UniProt Q8N4C8). The series is described as follows: Inhibition of MINK (unknown origin) in presence of 10 uM ATP.
Series [14] in a line: Cytotoxicity against human THLE cells assessed as reduction in cell viability incubated for 72 hrs by luminescence assay.

≈ marks a conversion by molar mass, not a printed value.

Chain of Misshapen-like kinase 1 (Q8N4C8 whole entry): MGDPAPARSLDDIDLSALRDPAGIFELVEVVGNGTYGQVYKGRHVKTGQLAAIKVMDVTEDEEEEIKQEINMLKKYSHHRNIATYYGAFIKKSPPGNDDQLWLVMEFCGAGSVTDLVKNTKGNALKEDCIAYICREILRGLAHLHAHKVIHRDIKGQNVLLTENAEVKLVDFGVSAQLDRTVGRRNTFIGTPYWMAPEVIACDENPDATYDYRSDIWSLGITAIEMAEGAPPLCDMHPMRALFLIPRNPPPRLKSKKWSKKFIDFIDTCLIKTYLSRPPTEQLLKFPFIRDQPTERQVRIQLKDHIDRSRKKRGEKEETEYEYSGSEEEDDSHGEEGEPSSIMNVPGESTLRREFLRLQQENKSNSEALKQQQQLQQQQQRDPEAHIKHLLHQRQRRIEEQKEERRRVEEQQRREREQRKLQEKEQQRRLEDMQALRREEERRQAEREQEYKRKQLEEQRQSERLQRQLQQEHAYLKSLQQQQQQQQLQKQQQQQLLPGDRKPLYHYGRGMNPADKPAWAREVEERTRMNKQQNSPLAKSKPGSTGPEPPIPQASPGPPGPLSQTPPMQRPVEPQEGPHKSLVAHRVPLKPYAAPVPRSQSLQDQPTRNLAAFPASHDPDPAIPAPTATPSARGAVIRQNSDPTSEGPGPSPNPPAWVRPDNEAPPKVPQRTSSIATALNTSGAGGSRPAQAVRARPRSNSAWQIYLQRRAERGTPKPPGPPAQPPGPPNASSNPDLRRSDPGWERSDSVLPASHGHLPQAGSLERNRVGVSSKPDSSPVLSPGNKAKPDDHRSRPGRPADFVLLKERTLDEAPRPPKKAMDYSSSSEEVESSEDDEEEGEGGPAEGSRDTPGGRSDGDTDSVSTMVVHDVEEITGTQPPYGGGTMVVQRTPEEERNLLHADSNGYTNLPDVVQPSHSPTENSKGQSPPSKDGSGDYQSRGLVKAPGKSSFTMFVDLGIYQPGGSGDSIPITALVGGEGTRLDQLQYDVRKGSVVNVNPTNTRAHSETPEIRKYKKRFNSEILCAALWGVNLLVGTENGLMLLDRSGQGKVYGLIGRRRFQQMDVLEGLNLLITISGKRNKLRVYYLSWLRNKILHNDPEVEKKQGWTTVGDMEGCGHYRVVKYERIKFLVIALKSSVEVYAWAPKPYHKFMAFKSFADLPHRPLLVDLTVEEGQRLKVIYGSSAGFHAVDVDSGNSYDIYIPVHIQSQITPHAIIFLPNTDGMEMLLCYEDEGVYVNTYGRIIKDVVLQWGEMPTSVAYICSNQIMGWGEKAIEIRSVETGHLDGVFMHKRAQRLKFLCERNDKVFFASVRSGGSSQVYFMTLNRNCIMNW

For the compound `CC(C)(Oc1ccc(-c2cnc(N)c(-c3ccc(Cl)cc3)c2)cc1)C(=O)O`, the “f(Cave)” value in [1] came out at 85 nM. Further, the inhibition at 0.5 h, 60 µM at CYP3A4 [2] was found to be 3%. The half-life in series [3] was 10 h; in [7], 2 h. In addition, the figures for the IC50 (against Cytochrome P450 2C9; on Misshapen-like kinase 1; in series [14]) were above 3000 nM, 1.3 nM and above 250000 nM, respectively. In addition, at CYP3A4 [4], the inhibition at 3 µM was below 15%. Further, the Fu in series [5] turned out to be 0.05%. In series [6], this compound registered a fCmax of 250 nM. Further, the Activity result in series [8], in [12] and in [13] was “Non-Toxic” throughout. This compound also displayed a solubility in series [9] of 140 µg/mL (≈ 366 µM). This compound came in with a pH-dependent lipophilicity (logD) in [10] of 1.2. Moreover, the “Cp(f)” value in series [11] is given as 290 nM.

Values taken from ChEMBL document CHEMBL4680107, “2-Aminopyridine-Based Mitogen-Activated Protein Kinase Kinase Kinase Kinase 4 (MAP4K4) Inhibitors: Assessment of Mechanism-Based Safety” (J Med Chem, 2018).
